# Source: ChEMBL document CHEMBL1153245, “A profile of the in vitro anti-tumor activity of imidazolium-based ionic liquids” (2010)
# Tests used:
# Type in all cases: functional
# [1] = test system: HCC 2998; experiment: Anticancer activity against human HCC2998 cells after 48 hrs by sulforhodamine B assay; conditions: Homo sapiens, HCC 2998, 48 h
# [2] = test system: SNB-75; experiment: Anticancer activity against human SNB75 cells after 48 hrs by sulforhodamine B assay; conditions: Homo sapiens, SNB-75, 48 h
# [3] = test system: IGROV-1; experiment: Anticancer activity against human IGROV1 cells after 48 hrs by sulforhodamine B assay; conditions: IGROV-1, 48 h
# [4] = test system: HT-29; experiment: Anticancer activity against human HT-29 cells after 48 hrs by sulforhodamine B assay; conditions: Homo sapiens, HT-29, 48 h
# [5] = test system: CAKI-1; experiment: Anticancer activity against human Caki1 cells after 48 hrs by sulforhodamine B assay; conditions: Homo sapiens, CAKI-1, 48 h
# [6] = test system: EKVX; experiment: Anticancer activity against human EKVX cells after 48 hrs by sulforhodamine B assay; conditions: Homo sapiens, EKVX, 48 h
# [7] = test system: UACC-257; experiment: Anticancer activity against human UACC257 cells after 48 hrs by sulforhodamine B assay; conditions: Homo sapiens, UACC-257, 48 h
# [8] = test system: SK-MEL-5; experiment: Anticancer activity against human SK-MEL-5 cells after 48 hrs by sulforhodamine B assay; conditions: Homo sapiens, SK-MEL-5, 48 h
# [9] = test system: OVCAR-4; experiment: Anticancer activity against human OVCAR4 cells after 48 hrs by sulforhodamine B assay; conditions: Homo sapiens, OVCAR-4, 48 h
# [10] = test system: SK-MEL-2; experiment: Anticancer activity against human SK-MEL-2 cells after 48 hrs by sulforhodamine B assay; conditions: SK-MEL-2, 48 h
# [11] = test system: U-251; experiment: Anticancer activity against human U251 cells after 48 hrs by sulforhodamine B assay; conditions: Homo sapiens, U-251, 48 h
# [12] = test system: UO-31; experiment: Anticancer activity against human UO31 cells after 48 hrs by sulforhodamine B assay; conditions: Homo sapiens, UO-31, 48 h
# [13] = test system: 786-0; experiment: Anticancer activity against human 786-0 cells after 48 hrs by sulforhodamine B assay; conditions: Homo sapiens, 786-0, 48 h
# [14] = test system: SF-539; experiment: Anticancer activity against human SF539 cells after 48 hrs by sulforhodamine B assay; conditions: Homo sapiens, SF-539, 48 h
# [15] = test system: A549; experiment: Anticancer activity against human A549 cells after 48 hrs by sulforhodamine B assay; conditions: Homo sapiens, A549, 48 h
# [16] = Anticancer activity against human […] cells after 48 hrs by sulforhodamine B assay; conditions: Homo sapiens, RPMI8266, 48 h
# [17] = test system: NCI-H23; experiment: Anticancer activity against human NCI-H23 cells after 48 hrs by sulforhodamine B assay; conditions: Homo sapiens, NCI-H23, 48 h
# [18] = test system: BT-549; experiment: Anticancer activity against human BT549 cells after 48 hrs by sulforhodamine B assay; conditions: Homo sapiens, BT-549, 48 h
# [19] = test system: PC-3; experiment: Anticancer activity against human PC3 cells after 48 hrs by sulforhodamine B assay; conditions: Homo sapiens, PC-3, 48 h
# [20] = test system: TK-10; experiment: Anticancer activity against human TK10 cells after 48 hrs by sulforhodamine B assay; conditions: Homo sapiens, TK-10, 48 h
# [21] = test system: MDA-MB-231; experiment: Anticancer activity against human MDA-MB-231 cells after 48 hrs by sulforhodamine B assay; conditions: Homo sapiens, MDA-MB-231, 48 h
# [22] = test system: K562; experiment: Anticancer activity against human K562 cells after 48 hrs by sulforhodamine B assay; conditions: Homo sapiens, K562, 48 h
# [23] = test system: LOX IMVI; experiment: Anticancer activity against human LOXIMVI cells after 48 hrs by sulforhodamine B assay; conditions: Homo sapiens, LOX IMVI, 48 h
# [24] = test system: HOP-62; experiment: Anticancer activity against human HOP62 cells after 48 hrs by sulforhodamine B assay; conditions: Homo sapiens, HOP-62, 48 h
# [25] = test system: HOP-92; experiment: Anticancer activity against human HOP92 cells after 48 hrs by sulforhodamine B assay; conditions: Homo sapiens, HOP-92, 48 h
# [26] = test system: KM12; experiment: Anticancer activity against human KM12 cells after 48 hrs by sulforhodamine B assay; conditions: Homo sapiens, KM12, 48 h
# [27] = test system: NCI-H522; experiment: Anticancer activity against human NCI-H522 cells after 48 hrs by sulforhodamine B assay; conditions: Homo sapiens, NCI-H522, 48 h
# [28] = test system: RXF 393; experiment: Anticancer activity against human RXF393 cells after 48 hrs by sulforhodamine B assay; conditions: Homo sapiens, RXF 393, 48 h
# [29] = test system: OVCAR-8; experiment: Anticancer activity against human OVCAR8 cells after 48 hrs by sulforhodamine B assay; conditions: Homo sapiens, OVCAR-8, 48 h
# [30] = test system: M14; experiment: Anticancer activity against human M14 cells after 48 hrs by sulforhodamine B assay; conditions: Homo sapiens, M14, 48 h
# [31] = test system: CCRF-CEM; experiment: Anticancer activity against human CCRF-CEM cells after 48 hrs by sulforhodamine B assay; conditions: Homo sapiens, CCRF-CEM, 48 h
# [32] = test system: MOLT-4; experiment: Anticancer activity against human MOLT4 cells after 48 hrs by sulforhodamine B assay; conditions: Homo sapiens, MOLT-4, 48 h
# [33] = test system: SNB-19; experiment: Anticancer activity against human SNB19 cells after 48 hrs by sulforhodamine B assay; conditions: Homo sapiens, SNB-19, 48 h
# [34] = read-out: LC50 (the source's name)
smiles,measurement,setting,value
CCCCCCCCCCCCCCCCCC[n+]1ccn(C)c1.FC(F)(F)C(F)(F)[P-](F)(F)(F)(C(F)(F)C(F)(F)F)C(F)(F)C(F)(F)F,GI50,[1],271 nM
same,CC50,[1]; [34],25500 nM
same,GI50,[2],419 nM
same,CC50,[2]; [34],> 100000 nM
same,GI50,[3],219 nM
same,CC50,[3]; [34],1440 nM
same,GI50,[4],315 nM
same,CC50,[4]; [34],> 100000 nM
same,GI50,[5],293 nM
same,LC50,[5],7460 nM
same,GI50,[6],346 nM
same,CC50,[6]; [34],8910 nM
same,GI50,[7],523 nM
same,LC50,[7],9710 nM
same,GI50,[8],313 nM
same,CC50,[8]; [34],3310 nM
same,GI50,[9],320 nM
same,CC50,[9]; [34],> 100000 nM
same,GI50,[10],372 nM
same,LC50,[10],> 100000 nM
same,GI50,[11],322 nM
same,CC50,[11]; [34],3700 nM
same,GI50,[12],365 nM
same,LC50,[12],5310 nM
same,GI50,[13],425 nM
same,LC50 (50% lethal concentration),[13],5360 nM
same,GI50,[14],288 nM
same,"LC50 (lethal concentration, 50% cell kill)",[14],4190 nM
same,GI50,[15],458 nM
same,LC50 (concentration killing 50% of cells),[15],> 100000 nM
same,GI50,[16],86 nM
same,CC50,[16]; [34],> 100000 nM
same,GI50,[17],224 nM
same,CC50,[17]; [34],12700 nM
same,GI50,[18],334 nM
same,CC50,[18]; [34],4200 nM
same,GI50,[19],276 nM
same,CC50,[19]; [34],8030 nM
same,GI50,[20],310 nM
same,LC50,[20],4120 nM
same,GI50,[21],378 nM
same,CC50,[21]; [34],4820 nM
same,GI50,[22],238 nM
same,CC50,[22]; [34],> 100000 nM
same,GI50,[23],164 nM
same,CC50,[23]; [34],678 nM
same,GI50,[24],390 nM
same,CC50,[24]; [34],6090 nM
same,GI50,[25],211 nM
same,CC50,[25]; [34],22000 nM
same,GI50,[26],214 nM
same,CC50,[26]; [34],929 nM
same,GI50,[27],285 nM
same,LC50,[27],4320 nM
same,GI50,[28],930 nM
same,LC50,[28],8310 nM
same,GI50,[29],491 nM
same,LC50,[29],> 100000 nM
same,GI50,[30],402 nM
same,LC50 (50% lethal concentration),[30],> 100000 nM
same,GI50,[31],324 nM
same,LC50,[31],> 100000 nM
same,GI50,[32],336 nM
same,LC50,[32],> 100000 nM
same,GI50,[33],422 nM
same,CC50,[33]; [34],3950 nM
